The source of these data is patent publication US4132738A, “Preparation of 15-deoxy-16-hydroxyprostaglandins” (Miles Laboratories, Inc., priority 1978, dated 1979).

Structures are written as SMILES.

What all share (conditions): comparison in words
For test [1], the system named is blood pressure and heart rate in the anesthetized cat. Put plainly: Effects on blood pressure and heart rate in the anesthetized cat. Type of test: in vivo. The protocol: The acute effects of test compounds on blood pressure and heart rate were determined in cats of either sex anesthetized with a mixture of pentobarbital sodium (35 mg/kg, i.v.) and barbital sodium (100 mg/kg, i.v.). Cannulas were placed in the trachea to allow adequate spontaneous ventilation, in a femoral artery for blood pressure recording with a strain gage transducer, and in a saphenous vein for drug administration.
Heart rate was recorded by means of a cardiotachometer driven by the R wave of the electrocardiogram. After a period of 10 minutes of stable recordings of blood pressure and heart rate, the test compound was administered intravenously at doses increasing from 0.01 to 10.0 mcg/kg, spaced one log and injected at 10 minute intervals. All doses were injected in a volume of 0.1 ml/kg. Modifications of blood pressure and heart rate induced by the test compound were expressed both in absolute units (mmHg and beats/minute) and as percent of values recorded immediately before administration of each dose. Biphasic responses were tabulated in the order in which they occurred. […]
Activity of compounds in this test was judged only on the basis of the degree of hypotension observed. Thus, the ED50 mmHg (dose decreasing blood pressure by 50 mmHg) was calculated graphically, and the compound scored according to the following scale: […]

Test [2] deals with rat stomach, rat colon, chick rectum, and rabbit aorta. Put plainly: Cascade assay, all four tissues. The test is classed as cell-based. The protocol:
(§1) The smooth muscle stimulant effects of the test compounds were determined simultaneously in four different tissues that are known to be reactive to naturally occurring prostaglandins. Segments of rat stomach fundus, rat colon, chick rectum and rabbit aortic strip were obtained as described by: Vane, J. R., Brit. J. Pharmacol., 12: 344 (1957); Regoli, D. and Vane, J. R., Brit. J. Pharmacol., 23: 351 (1964); Mann, M. and West, G. B., Brit. J. Pharmacol., 5: 173 (1950); and Furchgott, R. F. and Bhadrakom, R., J. Pharmacol. Exper. Ther., 108: 129 (1953). One end of each preparation was tied to the bottom of a 10 ml tissue chamber and the other to a force displacement transducer (Grass FT-03) for continuous tension recording. The stomach, colon, and rectum segments were stretched to an initial tension of 1 g, while the aortic strip was subjected to 4 g. All preparations were left undisturbed for 1 hour prior to ptesting. The chambers were equipped with an external jacket through which water, maintained at 40° C., was circulated. […]
(§2) Test compounds were diluted from stock solutions so as to administer quantities ranging from 0.0001 to 100,000 ng in a volume of 0.5 ml. […] Maximal increases in tension after each dose were measured and the results were used to plot dose-response curves. […]
(§3) Activity in each tissue was scored according to the following scale: […]

In test [3] the test system is rat colon. As to the kind of experiment: Cascade assay, rat colon in vitro. The test is classed as cell-based. The protocol:
as §1, §2, §3

The test system of test [4] is rat stomach. Put plainly: Cascade assay, rat stomach fundus in vitro. The test is classed as cell-based. Here is the method: as §1, §2, §3

Take `CCCCC(C)(O)C/C=C/[C@H]1[C@H](O)CC(=O)[C@@H]1CCCCCCC(=O)OC` (stereo partly drawn) [TR 4704, Methyl 11α, 16RS-dihydroxy-16-methyl-9-oxoprost-13E-oate, reference compound]: the “Feline blood pressure and heart rate value, methyl ester versus carbinol” value in test [1] is “significantly and undesirably higher”. In test [2], the “Cascade values, methyl ester versus carbinol” value was “significantly and undesirably higher”.

`CCCCC(O)C/C=C/[C@H]1[C@H](O)CC(=O)[C@@H]1CCCCCCC(=O)OC` (stereo partly drawn) [TR 4705, Methyl 11α, 16RS-dihydroxy-9-oxoprost-13E-en-1-oate, reference compound]: the “Cascade colon value, methyl ester versus carbinol” value in test [3] is “higher”. Moreover, in test [4], the “Cascade stomache value, methyl ester versus carbinol” value is reported as “higher”.
